For 20 compounds, IC50 results are on record in patent publication US11242334B2, “Heterocyclic compounds as kinase inhibitors, compositions comprising the heterocyclic compound, and methods of use thereof” (JS INNOPHARM (SHANGHAI) LTD, priority 2017, dated 2022).

Some results are limits rather than exact numbers.

The target in one experiment is T1, human ERK2 (Homo sapiens, UniProt P28482).
T1 construct: recombinantly expressed as GST-tagged full-length protein purified from E. coli; GST; purchased Invitrogen PV3311; host or cells: E. coli
T1 sequence (P28482 whole entry): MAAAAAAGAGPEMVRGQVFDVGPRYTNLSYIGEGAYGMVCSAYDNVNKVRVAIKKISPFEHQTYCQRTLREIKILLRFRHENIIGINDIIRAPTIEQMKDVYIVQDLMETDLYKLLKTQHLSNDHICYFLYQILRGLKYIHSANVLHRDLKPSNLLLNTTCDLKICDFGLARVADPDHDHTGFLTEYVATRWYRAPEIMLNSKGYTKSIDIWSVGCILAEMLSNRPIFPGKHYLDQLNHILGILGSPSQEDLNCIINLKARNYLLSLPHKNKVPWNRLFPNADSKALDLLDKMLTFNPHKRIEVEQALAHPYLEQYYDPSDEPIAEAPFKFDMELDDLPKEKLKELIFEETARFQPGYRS
The experiment is described as follows: LanthaScreen TR-FRET enzymatic assay, ERK2. The following applies: IC50 values of ERK2 biochemical activity; 5 μM ATP, 400 nM ATF2-GFP substrate. The gist of the method:
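GST-tagged full-length ERK2 from E. coli, activated with MAP2K1, was used at 20 ng/ml with 400 nM GFP-ATF2(19-96) and 5 μM ATP (near Km). Compound was pre-incubated 15 min, and the reaction ran 1 h at room temperature. pThr71 was detected by Tb-antibody TR-FRET ratio, with IC50 from sigmoid fitting against 1% DMSO.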
On the technique in general: Time-resolved FRET reads energy transfer from a long-lived donor to a nearby acceptor.

A further experiment concerns Colo205 cell line. Briefly: Colo205 cell proliferation assay (MTT assay, WST-8 readout). Type of experiment: cell-based. Conditions: Homo sapiens; IC50 values of growth inhibition in Colo 205 cells; 72 hours. In short, it runs like this:
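Colo205 cells were seeded at 5,000 cells/well in RPMI-1640 with 10% FBS and attached for 24 h at 37° C. They were then exposed for 72 h to compound at final 50 μM to 0.005 μM (0.5% DMSO). Viability was read as WST-8 absorbance at 450 nm after 2 h, and IC50 of growth inhibition was determined.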
On the technique in general: Formazan colour is commonly taken as a measure of viable cells.

Take `Cc1cc(-c2n[nH]c3ccc(-c4ccn([C@H](CO)c5cccc(Cl)c5)c(=O)c4)c(F)c23)ccn1` [Example 13, (S)-1-(1-(3-chlorophenyl)-2-hydroxyethyl)-4-(4-fluoro-3-(2-methylpyridin-4-yl)-1H-indazol-5-yl)pyridin-2(1H)-one]: the results for the IC50 against human ERK2 and with Colo205 cell line were below 0.01 µM and 0.5 to 1 µM, respectively.

Consider `Cn1cc(-c2n[nH]c3ccc(-c4ccn([C@H](CO)c5ccc(F)c(Br)c5)c(=O)c4)cc23)cn1` [Example 46, (S)-1-(1-(3-bromo-4-fluorophenyl)-2-hydroxyethyl)-4-(3-(1-methyl-1H-pyrazol-4-yl)-1H-indazol-5-yl)pyridin-2(1H)-one], for which the IC50 at human ERK2 is below 0.01 µM; in the experiment with Colo205 cell line, at most 0.5 µM.

Regarding `Cn1cc(-c2n[nH]c3ccc(-c4ccn(Cc5cc(F)cc(Br)c5)c(=O)c4)cc23)cn1` [Example 86, 1-(3-bromo-5-fluorobenzyl)-4-(3-(1-methyl-1H-pyrazol-4-yl)-1H-indazol-5-yl)pyridin-2(1H)-one], the IC50 is below 0.01 µM on human ERK2 and at most 0.5 µM in the experiment with Colo205 cell line.

Take `Cc1cc(-c2n[nH]c3ncc(-c4ccn([C@H](CO)c5ccc(F)c(Cl)c5)c(=O)c4)cc23)ccn1` [Example 101, (S)-1-(1-(3-chloro-4-fluorophenyl)-2-hydroxyethyl)-4-(3-(2-methylpyridin-4-yl)-1H-pyrazolo[3,4-b]pyridin-5-yl)pyridin-2(1H)-one]: the 50% inhibitory concentration (IC50) is below 0.01 µM on human ERK2 and at most 0.5 µM with Colo205 cell line.

Consider `O=c1cc(-c2ccc3[nH]nc(-c4ccc5ncsc5c4)c3c2)ccn1[C@H](CO)c1cc(F)cc(Br)c1` [Example 114, (S)-4-(3-(benzo[d]thiazol-6-yl)-1H-indazol-5-yl)-1-(1-(3-bromo-5-fluorophenyl)-2-hydroxyethyl)pyridin-2(1H)-one], for which the IC50 was below 0.01 µM on human ERK2 and at most 0.5 µM in the experiment with Colo205 cell line.

In the case of `CCOc1cc(-c2n[nH]c3ccc(-c4ccn([C@H](CO)c5cc(F)cc(Br)c5)c(=O)c4)cc23)ccn1` [Example 119, (S)-1-(1-(3-bromo-5-fluorophenyl)-2-hydroxyethyl)-4-(3-(2-ethoxypyridin-4-yl)-1H-indazol-5-yl)pyridin-2(1H)-one], the IC50 was below 0.01 µM on human ERK2 and at most 0.5 µM in the experiment on Colo205 cell line.

On to `Cn1cc(-c2n[nH]c3ccc(-c4ccn([C@H](CO)c5cccc(I)c5)c(=O)c4)cc23)cn1` [Example 47, (S)-1-(2-hydroxy-1-(3-iodophenyl)ethyl)-4-(3-(1-methyl-1H-pyrazol-4-yl)-1H-indazol-5-yl)pyridin-2(1H)-one], for which the values for the IC50 at human ERK2 and in the experiment with Colo205 cell line were below 0.01 µM and at most 0.5 µM, respectively.

Take `Cn1nccc1Nc1n[nH]c2ccc(-c3ccn([C@H](CO)c4cccc(Cl)c4)c(=O)c3)cc12` [Example 12, (S)-1-(1-(3-chlorophenyl)-2-hydroxyethyl)-4-(3-((1-methyl-1H-pyrazol-5-yl)amino)-1H-indazol-5-yl)pyridin-2(1H)-one]: the figures for the IC50 at human ERK2 and in the experiment with Colo205 cell line were 0.01 to 0.05 µM and 1 to 5 µM, respectively.

Take `Cc1cc(-c2n[nH]c3ccc(-c4ccn(Cc5cc(F)cc(F)c5)c(=O)c4)cc23)ccn1` [Example 79, 1-(3,5-difluorobenzyl)-4-(3-(2-methylpyridin-4-yl)-1H-indazol-5-yl)pyridin-2(1H)-one]: the IC50 against human ERK2 is below 0.01 µM; in the experiment on Colo205 cell line it was 0.5 to 1 µM.

With `Cn1cc2cc(-c3n[nH]c4ccc(-c5ccn([C@H](CO)c6cc(F)cc(Br)c6)c(=O)c5)cc34)ccc2n1` [Example 113, (S)-1-(1-(3-bromo-5-fluorophenyl)-2-hydroxyethyl)-4-(2′-methyl-1H,2′H-[3,5′-biindazol]-5-yl)pyridin-2(1H)-one], the figures for the IC50 at human ERK2 and with Colo205 cell line were below 0.01 µM and at most 0.5 µM, respectively.

`Cc1cc(-c2n[nH]c3ccc(-c4ccn(C(C)c5ccnc(C(F)(F)F)c5)c(=O)c4)cc23)ccn1` (stereo not shown) [Example 142, 4-(3-(2-methylpyridin-4-yl)-1H-indazol-5-yl)-1-(1-(2-(trifluoromethyl)pyridin-4-yl)ethyl)pyridin-2(1H)-one]: the results for the IC50 against human ERK2 and in the experiment with Colo205 cell line were below 0.01 µM and at most 0.5 µM, respectively.

`CC(C)(O)c1ccc(-c2n[nH]c3ccc(-c4ccn([C@H](CO)c5ccc(F)c(Cl)c5)c(=O)c4)cc23)cn1` [Example 20, (S)-1-(1-(3-chloro-4-fluorophenyl)-2-hydroxyethyl)-4-(3-(6-(2-hydroxypropan-2-yl)pyridin-3-yl)-1H-indazol-5-yl)pyridin-2(1H)-one]: the IC50 fell in the range of 0.01 to 0.05 µM against human ERK2 and 1 to 5 µM in the experiment on Colo205 cell line.

`COc1cc(-c2n[nH]c3ccc(-c4ccn([C@H](CO)c5cc(F)cc(Br)c5)c(=O)c4)cc23)ccn1` [Example 115, (S)-1-(1-(3-bromo-5-fluorophenyl)-2-hydroxyethyl)-4-(3-(2-methoxypyridin-4-yl)-1H-indazol-5-yl)pyridin-2(1H)-one]: the values for the IC50 at human ERK2 and in the experiment on Colo205 cell line were below 0.01 µM and at most 0.5 µM, respectively.

For the compound `Cc1cc(-c2n[nH]c3ccc(-c4ccn(Cc5cccc(F)c5N)c(=O)c4)cc23)ccn1` [Example 82, 1-(2-amino-3-fluorobenzyl)-4-(3-(2-methylpyridin-4-yl)-1H-indazol-5-yl)pyridin-2(1H)-one], the IC50 on human ERK2 was below 0.01 µM; with Colo205 cell line it was 0.5 to 1 µM.

With `CNc1n[nH]c2ccc(-c3ccn([C@H](CO)c4cccc(Cl)c4)c(=O)c3)cc12` [Example 5, (S)-1-(1-(3-chlorophenyl)-2-hydroxyethyl)-4-(3-(methyl-amino)-1H-indazol-5-yl)pyridin-2(1H)-one], the IC50 against human ERK2 was 0.01 to 0.05 µM; with Colo205 cell line it was 1 to 5 µM.

In the case of `COc1ccc(-c2n[nH]c3ccc(-c4ccn(Cc5ccnc(C(F)(F)F)c5)c(=O)c4)cc23)cn1` [Example 116, 4-(3-(6-methoxypyridin-3-yl)-1H-indazol-5-yl)-1-((2-(trifluoromethyl)pyridin-4-yl)methyl)pyridin-2(1H)-one], the IC50 on human ERK2 is below 0.01 µM; in the experiment with Colo205 cell line, 1 to 5 µM.

On to `CC(C)Oc1ccc(-c2n[nH]c3ccc(-c4ccn([C@H](CO)c5cccc(C(F)(F)F)c5)c(=O)c4)cc23)cn1` [Example 43, (S)-1-(2-hydroxy-1-(3-(trifluoromethyl)phenyl)ethyl)-4-(3-(6-isopropoxypyridin-3-yl)-1H-indazol-5-yl)pyridin-2(1H)-one], for which the 50% inhibitory concentration (IC50) is below 0.01 µM at human ERK2 and 1 to 5 µM with Colo205 cell line.

For `Cn1cc(-c2n[nH]c3ncc(-c4ccn([C@H](CO)c5ccc(F)c(Cl)c5)c(=O)c4)cc23)cn1` [Example 108, (S)-1-(1-(3-chloro-4-fluorophenyl)-2-hydroxyethyl)-4-(3-(1-methyl-1H-pyrazol-4-yl)-1H-pyrazolo[3,4-b]pyridin-5-yl)pyridin-2(1H)-one], the 50% inhibitory concentration (IC50) at human ERK2 is below 0.01 µM; in the experiment on Colo205 cell line, 1 to 5 µM.

In the case of `O=c1cc(-c2ccc3[nH]nc(N4CCC(O)C4)c3c2)ccn1[C@H](CO)c1cccc(Cl)c1` (stereo partly drawn) [Example 27, 1-((S)-1-(3-chlorophenyl)-2-hydroxyethyl)-4-(3-(3-hydroxypyrrolidin-1-yl)-1H-indazol-5-yl)pyridin-2(1H)-one], the results for the IC50 at human ERK2 and with Colo205 cell line were below 0.01 µM and 1 to 5 µM, respectively.

`Cc1cc(-c2n[nH]c3ccc(-c4ccn(Cc5cccc(C#N)c5)c(=O)c4)cc23)ccn1` [Example 71, 3-((4-(3-(2-methylpyridin-4-yl)-1H-indazol-5-yl)-2-oxopyridin-1(2H)-yl)methyl)benzonitrile]: the IC50 against human ERK2 was below 0.01 µM; in the experiment with Colo205 cell line it was 1 to 5 µM.

The term IC50 denotes the concentration that gives 50% inhibition. The low end stands for higher potency, the high end for lower potency.
